Data published in patent publication US20160015064A1, “COMPOUNDS, COMPOSITIONS, AND METHODS FOR MODULATING SWEET TASTE” (CHROMOCELL CORPORATION, priority 2013, published 2016).

Legend:
[1] = system: perception of the sweet taste of an aqueous solution of sweetener; assay: Two-alternative forced choice sip and spit method (2AFC); type: in vivo, humans
Protocol: The effect of the test compounds on the perception of the sweet taste of an aqueous solution of sweetener in humans was evaluated using a two-alternative forced choice “sip and spit” method (2AFC).
(§1) The aqueous sweetener solutions were prepared by adding, fructose, sucrose or glucose (by weight), to water to achieve the desired concentration.
Compounds were first prepared as a 500-fold concentrated stock solution in 100% ethanol. These concentrated stocks were then added to the aqueous sweetener solutions to result in a final ethanol concentration of 0.2%. The control (positive and negative) samples were also normalized to 0.2% ethanol. This level of ethanol was not seen to contribute any perceived sweetness.
The 2AFC test used for compound evaluation was a blind and randomized test where taste panelists (n=15) evaluate a pair of sweetener solutions at a time—one sample contains aqueous sweetener solution plus compound (i.e. test) while the other contains aqueous sweetener solution at higher concentration without compound (i.e. positive control). Each test sample was compared against a positive control. For example, if the test sample contained 1× sweetener concentration with compound (e.g. 5% sucrose with compound), the positive control sample contained a 1.1× sweetener concentration (e.g. 5.5% sucrose without compound).
Panelists were instructed not to eat or drink (except water) for at least 1 h before the test. During the test, panelists were instructed to sip each sample, swirl it around their mouth and then expectorate. After tasting each sample in the pair, panelists were instructed to record the sample that is “sweeter” in taste. Panelists cleansed their palates by rinsing with water, eating a cracker and waiting for an interval of about 5 minutes. Each pair was tasted twice. All samples were tasted at ambient temperatures. Data were analyzed using binomial probabilities.
Approximate levels of sweetness enhancement in column 5 of Table 2 were calculated as follows:
Approximate levels of sweetness enhancement=Sweetener concentration of positive control surpassed by the test sample, divided by sweetener concentration for compound-containing sample (e.g. 1.15×=5.75% sucrose/5% sucrose).

[2] = system: perception of the sweet taste of an aqueous solution of sweetener; assay: Ranking sip and spit test of sweetness perception (R index); type: in vivo, humans; conditions: compound 10 ppm, vs negative control
Protocol: The effect of the test compounds on the perception of the sweet taste of an aqueous solution of sweetener in humans was evaluated using a ranking “sip and spit” method.
as §1
Compounds were first prepared as a 500-fold concentrated stock solution in 100% ethanol. These concentrated stocks were then added to the aqueous sweetener solutions to result in a final ethanol concentration of 0.2%. The control (positive and negative) samples were also normalized to 0.2% ethanol.
In the ranking test used for compound evaluation, taste panelists (n=15), rank samples in increasing order of sweetness. One set, comprising of 6 samples, was presented to each panelists at a given time and are asked to rank them in order of increasing sweetness.
Panelists were instructed not to eat or drink (except water) for at least 1 h before the test. During the test, panelists were instructed to sip each sample, swirl it around their mouth and then expectorate. After tasting each set, panelists were instructed to rank the 6 samples within the set from least sweet to most sweet. Where rank 1—is lowest in sweetness and rank 6—is highest in sweetness. Panelists cleansed their palates by rinsing with water, eating a cracker and waiting for an interval of 10 minutes. All samples were tasted at ambient temperatures. Each sample was tasted twice.
R index analysis was utilized to determine the degree of difference between a test and control sample. It indicates the level of discrimination between two samples. […] A positive control sample was used to assess the ability of the panelists to accurately discriminate sweetness perception differences from the negative control.

[3] = system: perception of the sweet taste in an aqueous environment; assay: Trained descriptive analysis (DA) panel, sweet attribute; type: in vivo, humans; conditions: for Compound effects beyond the additive effect of inherent sweetness: 4% fructose and 8% sucrose
Protocol: The effect of the test compounds on the perception of the sweet taste in an aqueous environment, in the absence or presence of carbohydrate sweeteners, was evaluated using a descriptive analysis methodology with a group of trained panelists, as follows.
Candidate panelists were recruited, with prescreening and personal interviews, and were assessed for their ability to detect, recognize and differentiate basic taste attributes or mixtures thereof as part of a standardized acuity test. These candidate panelists were also assessed for their innate ability to identify flavors, and to rank on intensity scales. Other senses such as smell and vision were also included as part of the assessment. Candidates also were screened for their ability to use the language to describe and articulate ideas.
Selected candidates proceeded to training as a group in three phases: (1) Lexicon development, (2) Concept alignment, and (3) Scaling descriptors. During lexicon development, panelists evaluated products appropriate for use in the study to generate and align on terms describing the flavor, taste, aromatic, trigeminal, and temporal attributes. During concept alignment, the panel evaluated the products mentioned above to clarify and confirm the attributes that were generated during lexicon development using reference standards that appropriately define each attribute; these are either physical references (e.g. sucrose solutions) or verbal descriptions (e.g. overall flavor). Product terms and concepts were validated during this portion of the study.
In the last phase, scaling descriptors, the panel participated in a series of exercises focused on ordering and ranking samples according to relative attribute intensity, measuring attribute intensity using a defined length of line scale. Whenever possible, different levels or concentration of references were used as anchors to facilitate use of the scale. Panelists were provided with blinded references at this stage to evaluate their understanding and perception of the scale.
The panel used in this example was trained to reference sweet attributes in an absolute manner, such that a particular concentration of sweetener is always measured by the panelists at the same point using a 15 cm line scale where each cm represents a 1% increase in sucrose to cover the range of 0% to 15% sucrose. For the rest of the attributes, the panel was trained using a hybrid approach between descriptive analysis methods (e.g. quantitative descriptive analysis, the sensory spectrum, etc.) well-known to those skilled in the art.
The trained panel was then used for a descriptive analysis assessment for Compounds 1, 2 and 3 in aqueous solutions at pH 3 and pH 7. Each of the three compounds was tested at 35 ppm in sucrose and fructose sweeteners. In addition, Compounds 1, 2 and 3 were also examined in water at pH 3 and pH 7 to assess for any inherent sweetness.
The aqueous sweetener solutions were prepared by adding, fructose or sucrose (by weight), to water to achieve the desired concentration. Aqueous sucrose solutions at pH 3 were buffered using a final concentration of 0.096% Citric Acid plus 0.036% Sodium Citrate while aqueous fructose solutions at pH 3 were buffered using a final concentration of 0.06% Citric Acid and 0.0225% Sodium Citrate.
Compounds were first prepared as a […] concentrated stock solution in 100% ethanol. These concentrated stocks were then added to the aqueous sweetener solutions to result in a final ethanol concentration of 0.2%. In addition to compounds, a solubilizing agent at a final concentration of 0.02% was added to the aqueous sweetener solutions. Control samples were also balanced with 0.2% ethanol and in certain cases 0.02% solubilizing agent.
Both control (aqueous sweetener solutions without compound) and variant (aqueous sweetener solutions with compound) samples were blinded and randomized (by sweetener and pH blocks). […]

[4] = system: flavor; conditions: DuBois, et al., J. Med. Chem., 1981; cited from earlier work
[5] = 4% fructose, pH 3, 35 ppm compound plus solubilizing agent
[6] = 4% fructose, pH 7, 35 ppm compound plus solubilizing agent
[7] = 8% sucrose, pH 3, 35 ppm compound plus solubilizing agent
[8] = 8% sucrose, pH 7, 35 ppm compound plus solubilizing agent

**Q.** With `COc1ccc(C2CC(=O)c3c(O)cccc3O2)cc1O` (racemic) [Compound 1, 5-hydroxy-2-(3-hydroxy-4-methoxyphenyl)chroman-4-one] as the compound, how does the “Fold increase in perceived sweetness” value ([1]; test sample 4% fructose, compound 25 ppm with positive 2AFC) read?
**A.** The value was greater than 1.20X.

**Q.** What about the “Fold increase in perceived sweetness” value ([1]; test sample 5% sucrose, compound 15 ppm with positive 2AFC, positive control surpassed / test sweetener concentration) of the same compound?
**A.** The value was greater than 1.15X.

**Q.** What about the “Fold increase in perceived sweetness” value ([1]; test sample 6.5% glucose, compound 10, 25 ppm with positive 2AFC) of the same compound?
**A.** Its value is greater than 1.15X.

**Q.** What about the “R Index Score” value ([2]; 4% fructose test sample) of the same compound?
**A.** The value was 90.

**Q.** What about the “R Index Score” value ([2]; 5% sucrose test sample, significant at R index ≧60) of the same compound?
**A.** Its value is 93.

**Q.** What about the “DA Panel Average Sweetness Intensity Score (on 15 cm scale)” value [3, 5] of the same compound?
**A.** The value was 6.94.

**Q.** And the “Fold enhancement of sweetness perception as compared to control sweetener solution” value (from here on “Fold enhancement of sweetness perception”) [3, 5]?
**A.** The value was 1.38X.

**Q.** What about the “DA Panel Average Sweetness Intensity Score (on 15 cm scale)” value [3, 6] of the same compound?
**A.** The value was 7.80.

**Q.** And the “Fold enhancement of sweetness perception” value [3, 6]?
**A.** The value was 1.78X.

**Q.** And the “DA Panel Average Sweetness Intensity Score (on 15 cm scale)” value [3, 7]?
**A.** Its value is 9.31.

**Q.** And the “Fold enhancement of sweetness perception” value [3, 7]?
**A.** The value was 1.29X.

**Q.** What about the “DA Panel Average Sweetness Intensity Score (on 15 cm scale)” value [3, 8] of the same compound?
**A.** The value was 9.97.

**Q.** And the “Fold enhancement of sweetness perception” value [3, 8]?
**A.** Its value is 1.33X.

**Q.** And the “DA Panel Average Sweetness Intensity Score (on 15 cm scale)” value ([3]; citric acid-citrate solution pH 3, no sweetener, 35 ppm compound plus solubilizing agent)?
**A.** Its value is 1.14.

**Q.** What about the “Perceived inherent sweetness compared to solubilizing agent alone” value ([3]; citric acid-citrate solution pH 3, 35 ppm compound plus solubilizing agent) of the same compound?
**A.** Its value is “do not show further significant increase in perceived inherent sweetness”.

**Q.** And the “Compound effects beyond the additive effect of inherent sweetness” value ([3]; pH 3, 35 ppm)?
**A.** Its value is “super-additive effects”.

**Q.** And the “Perceived sweetness vs control sweetener solutions (FIG. 2)” value ([3]; pH 3, fructose and sucrose, 35 ppm, ** p<0.01)?
**A.** Its value is “significant increase in perceived sweetness”.

**Q.** What about the “Compound effects beyond the additive effect of inherent sweetness” value ([3]; pH 7, 35 ppm) of the same compound?
**A.** The value was “super-additive effects”.

**Q.** And the “Perceived sweetness vs control sweetener solutions (FIG. 1)” value ([3]; pH 7, fructose and sucrose, 35 ppm, ** p<0.01)?
**A.** The value was “significant increase in perceived sweetness”.

**Q.** What about the “DA Panel Average Sweetness Intensity Score (on 15 cm scale)” value ([3]; water pH 7, no sweetener, 35 ppm compound plus solubilizing agent, 1 cm = 1% sucrose) of the same compound?
**A.** Its value is 1.57.

**Q.** And the “Perceived sweetness compared to solubilizing agent alone (inherent sweetness)” value ([3]; water pH 7, 35 ppm compound plus solubilizing agent)?
**A.** Its value is “further increase in perceived sweetness”.

**Q.** And the “Reported flavor (bitter)” value [4]?
**A.** The value was “bitter flavor in a significant portion of tasters”.

**Q.** What about the “Reported flavor (sweet)” value [4] of the same compound?
**A.** The value was “sweet flavor”.
